Read-outs that look alike come from different tables or passages of the source.
Legend:
MDR1 (P-glycoprotein) = biological target: T1, MDR1 (P-glycoprotein) (Homo sapiens, UniProt P08183); assay: MDR1-MDCK permeability and efflux assay (Papp, efflux ratio, effective efflux ratio); type: in vitro ADME; details: dog
T1 construct: host or cells: MDCK (MDR1-MDCK; wild-type MDCK as comparator)
Procedure, shortened: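 Bidirectional transport measured over 1 h at 37 °C with 10 μM test compound (0.1% DMSO) in pH 7.4 HEPES-buffered HBSS across MDR1-transfected and wild-type MDCK monolayers, analysed by LC-MS/MS. Efflux ratio is B>A over A>B Papp; effective efflux ratio divides MDR1-MDCK ER by wild-type ER.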

[1] = biological target: T2, human Arginine Vasopressin Receptor 1a (AVPR1a) (Homo sapiens, UniProt P37288); assay: Vasopressin V1a receptor antagonist assay (FLIPR calcium, CHO-AVPR1a cells); type: cell-based
T2 construct: expressed in transfected cells; host or cells: CHO (CHO-AVPR1a, kept under G418 selection)
Procedure, shortened: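 CHO cells expressing human AVPR1a were loaded with Calcium-6 dye and preincubated with compound for 15 min at 37° C. Cells were then challenged with AVP at its daily-determined EC80, and FLIPR fluorescence was read. Compounds were tested in duplicate as 10-point 1:3 dilutions from a top final concentration of 3 μM.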

T1 sequence (P08183 whole entry): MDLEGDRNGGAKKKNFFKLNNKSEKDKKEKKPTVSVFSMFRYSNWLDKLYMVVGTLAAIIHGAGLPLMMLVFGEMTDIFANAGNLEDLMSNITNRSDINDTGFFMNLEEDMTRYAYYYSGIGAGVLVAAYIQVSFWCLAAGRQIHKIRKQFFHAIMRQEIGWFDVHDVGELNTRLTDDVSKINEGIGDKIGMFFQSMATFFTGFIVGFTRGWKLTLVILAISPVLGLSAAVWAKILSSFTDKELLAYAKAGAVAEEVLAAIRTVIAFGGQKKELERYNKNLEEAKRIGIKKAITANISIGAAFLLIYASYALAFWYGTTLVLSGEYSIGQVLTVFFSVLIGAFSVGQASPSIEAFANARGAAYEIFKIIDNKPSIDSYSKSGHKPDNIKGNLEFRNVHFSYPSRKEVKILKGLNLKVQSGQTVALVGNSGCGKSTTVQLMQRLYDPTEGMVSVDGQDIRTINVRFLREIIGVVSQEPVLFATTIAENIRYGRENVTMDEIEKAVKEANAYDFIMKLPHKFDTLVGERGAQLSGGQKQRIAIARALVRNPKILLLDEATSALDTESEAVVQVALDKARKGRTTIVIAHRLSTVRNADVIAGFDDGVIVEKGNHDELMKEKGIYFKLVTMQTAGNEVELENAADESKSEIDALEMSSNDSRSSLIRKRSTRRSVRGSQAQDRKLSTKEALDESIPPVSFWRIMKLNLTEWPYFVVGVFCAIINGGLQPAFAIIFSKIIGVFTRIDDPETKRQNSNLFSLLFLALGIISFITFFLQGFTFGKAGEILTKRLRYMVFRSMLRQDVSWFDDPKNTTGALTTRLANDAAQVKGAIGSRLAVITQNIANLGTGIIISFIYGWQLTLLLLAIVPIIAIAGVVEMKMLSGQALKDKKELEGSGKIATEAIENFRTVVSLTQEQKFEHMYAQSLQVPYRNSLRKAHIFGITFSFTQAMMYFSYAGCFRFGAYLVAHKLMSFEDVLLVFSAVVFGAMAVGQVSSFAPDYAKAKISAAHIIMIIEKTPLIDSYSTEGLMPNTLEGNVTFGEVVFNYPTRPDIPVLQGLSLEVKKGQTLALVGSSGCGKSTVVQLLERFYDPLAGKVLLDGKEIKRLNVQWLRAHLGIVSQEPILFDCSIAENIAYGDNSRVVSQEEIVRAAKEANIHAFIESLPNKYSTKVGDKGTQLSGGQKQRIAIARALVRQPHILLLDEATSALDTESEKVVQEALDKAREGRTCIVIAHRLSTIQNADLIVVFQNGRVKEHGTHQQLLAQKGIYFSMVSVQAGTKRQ
T2 sequence (P37288 whole entry): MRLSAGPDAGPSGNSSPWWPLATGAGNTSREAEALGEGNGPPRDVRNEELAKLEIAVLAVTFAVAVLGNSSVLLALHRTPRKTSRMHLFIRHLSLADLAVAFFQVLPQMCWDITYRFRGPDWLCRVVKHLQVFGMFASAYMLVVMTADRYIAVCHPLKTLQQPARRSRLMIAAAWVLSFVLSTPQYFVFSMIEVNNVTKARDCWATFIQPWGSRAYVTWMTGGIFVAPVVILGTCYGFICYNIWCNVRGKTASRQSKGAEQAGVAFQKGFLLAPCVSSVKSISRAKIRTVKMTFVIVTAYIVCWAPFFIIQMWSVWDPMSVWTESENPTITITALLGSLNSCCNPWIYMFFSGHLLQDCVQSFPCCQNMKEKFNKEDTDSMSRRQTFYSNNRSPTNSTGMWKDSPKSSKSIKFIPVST

## CC1COc2cc(Cl)ccc2N1C(=O)N1CC2(C1)CN(c1ncccn1)C2 (single isomer, unassigned) [1-83-B, (7-chloro-3-methyl-2,3-dihydro-4H-benzo[b][1,4]oxazin-4-yl)(6-(pyrimidin-2-yl)-2,6-diazaspiro[3.3]heptan-2-yl)methanone]
MDR1 (P-glycoprotein); MDCK-MDR1, pH 7.4, ER(MDR1-MDCK)/ER(wild-type MDCK), read-out: EER (Effective Efflux Ratio)
  efflux ratio at 1 h, 10 μM: 1 to 2
MDR1 (P-glycoprotein); MDCK-MDR1, pH 7.4, Papp B>A/Papp A>B, MDR1-MDCK cells, read-out: ER MDR1 (Efflux Ratio)
  efflux ratio at 1 h, 10 μM: 1 to 2
MDR1 (P-glycoprotein); pH 7.4, A->B, MDR1-MDCK cells, read-out: Papp AB MDR1
  Papp A→B at 1 h, 10 μM: > 20 ×10⁻⁶ cm/s
[1]
  IC50: < 100 nM

Source: patent US12152038B2, “Vasopressin receptor antagonists and products and methods related thereto” (Neumora Therapeutics, Inc., priority 2017, dated 2024)
